Reference: patent US20250360214A1, “NON-TOXIC PHOTOSENSITIZER COMPOSITION AND TWO-COMPONENT TYPE PHOTOSENSITIZER COMPOSITION COMPRISING THE SAME” (priority 2024, published 2025)
Counter-ions that a name gives are not always drawn.

Experiments:
[1] = background statement; cited from earlier work
[2] = test system: RAW264.7; test: Cytotoxicity test (MTT assay) of solvent components PEG, DMSO and HCl; format: cell-based; conditions: RAW264.7, MTT assay, FIG. 1
Procedure: RAW264.7 (5×10^5 cells/well in 6 well plate) was used as a cell line, and 1XDMEM (supplemented with 7% FBS and 1% antibiotics) medium (Thermo fisher scientific, 11995-065) was used.
Raw264.7 cells, which may be animal model cells, were seeded into 6 well plates containing 2 mL of DMEM medium to have an initial cell number of 5×10^5 cells/well, and then cultured in a CO2 incubator at 37° C. for 1 day under CO2 conditions. After 1 day of culture, solvent composition samples were added and cultured for an additional 2 days under the same conditions, respectively. After that, MTT assay was performed to confirm cytotoxicity.
In this case, the MTT assay method using an MTT assay kit (EZ-CYTOX-company, Dogenbio-model number: EZ-500) first prepared 5×10^5/well (total vol. 2 ml) in a 6-well plate for seeding, and then cultured for 24 h under 37° C., 5% CO2 conditions. A blank (only media) without cells was also prepared at the same time. An experimental material was treated according to conditions, and then cultured and reacted for 24 h under 37° C./5% CO2 conditions. Additionally, 200 μL Ez-cytox ( 1/10) was added to each of the wells, and reacted for 1 h. The wells were shaken gently before measuring absorbance, 200 μL thereof was then transferred to a 96-well plate, the absorbance was measured at a wavelength of 450 nm, and a viability rate was calculated according to the following equation (1).

Compound	water solubility [1]	concentration at which no toxicity was observed [2]
3-[(3, 5-dimethyl-1H-pyrazole-4-yl)methyl]-3-devinylpyropheophorbide-a methyl ester [MPP100]	extremely low water solubility	
C[S+](C)[O-] [DMSO, dimethylsulfoxide]		≤ 2 vol %
Cl [HCl, hydrochloric acid]		≤ 10 mN
polyethylene glycol [PEG]		≤ 3 vol %
